The values that follow come from US8859615B2, “Compounds, compositions and methods for reducing toxicity and treating or preventing diseases” (priority 2008, dated 2014).

In data set [1] the test system is human PMBC lymphocytes. Nature of the data set: Time course of effects on proliferation of human lymphocytes (XTT and CCK-8; Table 6). The note with it: Lymphocyte, read-out: Dm. The class given is cell-based. Here is the method: Absorbance was measured by Powerwave a XS microplate spectrophotometer.
The effect of compounds of the invention on the proliferation of human lymphocytes at different time points are shown in Table 6 as results of XTT and CCK-8 tetrazolium assays following 24-hour, 72-hour, and 120-hour incubation. […] Cultured human PMBC lymphocytes were used in the assay. The procedures employed are taught in the General Biological Methods section.

Data set [2] has as its system CD-1 mouse splenocytes. Nature of the data set: Splenocyte stimulation: [3H]dThd incorporation into DNA (Table 7, FIGS. 10, 11). It counts as cell-based. The note with it: for proliferative activity life-span of normal mouse splenocytes in vitro: FIGS. 10 and 11; for stimulation of DNA synthesis ([3H] thymidine uptake) by mouse splenocytes / Incorporation of [3H]dThd into Mouse Splenocyte DNA (cpm): Table 7; for Incorporation of [3H]dThd into Mouse Splenocyte DNA (cpm): control 224 ± 28. The text has this:
FIG. 10 show controls and the effects of different concentrations of compounds of the invention, at different time points, on the proliferation of cultured mouse splenocytes as measured by DNA synthesis through incorporation of radiolabeled thymidine into the cells' DNA.
FIG. 11 show controls and the effects of different concentrations of compounds of the invention, at different time points, on the proliferation of cultured mouse splenocytes as measured by DNA synthesis through incorporation of radiolabeled thymidine into the DNA.
Splenocytes were prepared from CD mice as a single cell suspension, and treated with red blood cell (RBC) lysis buffer (as described at http://www.ebioscience.com/ebioscience/specs/antibody—00/00-4333.htm) to remove RBCs. In a typical experiment, splenocyte stimulations by […] (PHA), panaxytriol (PXT) or Compound D were measured by using tritium-labeled thymidine, ^3H-dThd, as a tracer for DNA synthesis. DNA synthesis correlates with cell proliferation. The incubation mixture consisted of splenocyte suspension in RPMI 1640 medium (1.56×10^6 cells in 198.5 μl)+3 μg of PHA in 1 μl+ the test compound at various concentrations in 0.5 μl in dimethyl sulfoxide (DMSO), to a final concentration of 200 μl per microplate well. DMSO alone was used in place of the compound in DMSO as a control. The incubation was carried out in 5% CO2-humidified atmosphere at 37° C. for a designated time [e.g., 24 hr, 48 hr, 72 hr, 96 hr]. At the end of the incubation period, ^3H-dThd 1 μCi in 1 μl was added for an additional 6 hr incubation. The reaction was stopped by adding one volume of 20% trichloroacetic acid (TCA), homogenized at 3° C. and washed with 20% TCA. The precipitate was heat extracted (90°) with 10% TCA for 15 minutes to obtain the DNA fraction, which has the radiolabel incorporated, in the supernatant. The supernatant was added to a 7-fold volume of Liquicint for scintillation counting, which was accomplished with a Beckman LS 6000 IC spectrometer from Beckman Coulter Co. The incorporation of [^3H]dThd into DNA of splenocytes were measured as described above or previously (Chou et al. Phytotherap. Res. 3: 237-242, 1989). The results are depicted in FIGS. 11 and 12.
For the cell-counting assays, the cells were washed with RPMI 1640 medium and followed by centrifugation. The cell number was counted with a hemocytometer. Splenocyte suspensions (0.4×10^6 cells in 0.2 ml) in flat bottom 96-well plates were incubated with [^3H]dThd (1 μCi) for 24-hrs in the absence or presence of […] (PHA, 0.1 μg/0.2 ml) or panaxytriol (0.03-1 μM). Studies indicate that maximal stimulation occurred at 48 hrs or 72 hrs. The procedure in Table 7 was used to test the splenocytes used in the assays described herein to test the compounds of the invention, shown by PHA stimulation of DNA synthesis. […] Splenocytes from this culture were used in the assays in FIGS. 11 and 12 and the corresponding Examples.

Data set [3] deals with CCRF-CEM human T-cell acute lymphoblastic leukemia cells. Nature of the data set: In vitro cytotoxicity against CCRF-CEM (XTT / CCK-8 tetrazolium assay, 72 hr). The following applies: for IC50: Homo sapiens.
For data set [4], the system named is leukemic CCRF CEM cells. The data set is described as follows: Precursor incorporation into DNA, RNA and protein (Table 9). The class given is cell-based, human. Here is the method: The radioactive tracer studies were carried out as described by Chou T C, et al. Cancer Res. 43: 3074-3079, 1983.
Where [5] appears, read: CCRF-CEM, 72 h, read-out: CCRF-CEM (IC50 in μM), Table 3A-2, CCK-8, 72-hr exposure.
Setting [6] is: CCRF-CEM, 72 h, read-out: IC50 CCRF-CEM, Table 3D, CCK-8, 72-hr incubation.
Setting [7] is: Homo sapiens, CCRF-CEM, 100 μM, 60 min, ↓ (inhibition), read-out: [3H] Leu → Protein (% Activation ↑ or Inhibition ↓).
The mark [8] stands for this setting: low concentration (panaxytriol 30 μM, Compound D 6 μM), 15 min incubation.

Like-named read-outs stand apart in the source and are kept apart here.

As for `C=C[C@H](O)C#CC#CC[C@H]1OC(C)(C)O[C@@H]1CCCCCCC` [Compound (D)], the EC50 in data set [1] (24 hr incubation) was 1070 nM; in data set [1] (72 hr incubation), 1520 nM; in data set [1] (120 hr incubation) it was 1760 nM. For the same compound, the “proliferative activity life-span of normal mouse splenocytes in vitro” value in data set [2] was “prolonged”. Moreover, the “anti-cancer activity in the in vitro cytotoxicity assay” value in data set [3] was “active against cancer”. Also, the IC50 in data set [3] (setting [5]) is 1.14 µM; in data set [3] (setting [6]) it was 0.478 µM; in data set [3] (CCRF-CEM, read-out: IC50 (in μM), cytotoxic potency against cancer cell line growth in vitro, Table 3C, cell line not given), 0.48 µM. Moreover, the “potency relative to Compound (A) in vitro” value in data set [3] (Table 3A) was “about 1.44 fold”. In data set [3] (Table 3A, CCRF-CEM), the “analog is fold more potent (than Compound (A))” value is listed as “is 1.68-fold”. In addition, the “effect on protein synthesis” value in data set [4] was “inhibitory effects”. Moreover, the “[3H]-AdR → RNA (% Activation ↑ or Inhibition ↓)” value is on record as 35.3 ↑ % in data set [4] (6 μM, 15 min, ↑ (activation)) and 72.5 ↓ % in data set [4] (100 μM, 60 min, ↓ (inhibition)). In addition, the “[3H]-dThd → DNA (% Activation ↑ or Inhibition ↓)” value in data set [4] (6 μM, 15 min, ↑ (activation)) was 13.2 ↑ %; in data set [4] (100 μM, 60 min, ↓ (inhibition)), 69.5 ↓ %. Also, the “effect on DNA and RNA synthesis” value in data set [4] (100 μM, 60 min incubation) was “inhibitory”; in data set [4] (setting [8]) it was “activate”. For the same compound, in data set [4] (Homo sapiens, CCRF-CEM, 6 μM, 15 min, ↓ (inhibition), read-out: [3H] Leu → Protein (% Activation ↑ or Inhibition ↓)), the inhibition at 6 µM amounted to 45.2%. Further, the inhibition at 100 µM in data set [4] (setting [7]) worked out at 69.5%.

Take `C=C[C@@H](O)C#CC#CC[C@@H](O)[C@H](O)CCCCCCC` [panaxytriol]: the results for the EC50 in data set [1] (24 hr incubation), in data set [1] (72 hr incubation) and in data set [1] (120 hr incubation) were 1640 nM, 3480 nM and 3160 nM, respectively. The “proliferative activity life-span of normal mouse splenocytes in vitro” value in data set [2] is reported as “prolonged”. For the same compound, the “stimulation of DNA synthesis ([3H] thymidine uptake) by mouse splenocytes” value in data set [2] is “induced stimulation of DNA synthesis”; in data set [2] (listed as Panaxytriol), “enhance [^3H] thymidine uptake into splenic cells in a dose-dependent manner”. Moreover, the “Incorporation of [3H]dThd into Mouse Splenocyte DNA (cpm)” value in data set [2] (0.03 μM) turned out to be 227 ± 8.3 cpm; in data set [2] (0.1 μM), 251 ± 18 cpm; in data set [2] (0.3 μM), 290 ± 20 cpm; in data set [2] (1.0 μM), 296 ± 9 cpm. Moreover, the IC50 in data set [3] (setting [5]) was 3.68 µM; in data set [3] (CCRF-CEM, 72 h, read-out: IC50 CCRF-CEM, Table 3, XTT, 72-hour), 12.1 ± 1.57 µM; in data set [3] (setting [6]), 5.04 ± 0.86 µM. The “effect on protein synthesis” value in data set [4] is reported as “inhibitory effects”. The “[3H]-AdR → RNA (% Activation ↑ or Inhibition ↓)” value in data set [4] (30 μM, 15 min, ↑ (activation)) was 38.0 ↑ %; in data set [4] (100 μM, 60 min, ↓ (inhibition)), 74.4 ↓ %. In addition, the “[3H]-dThd → DNA (% Activation ↑ or Inhibition ↓)” value is given as 21.3 ↑ % in data set [4] (30 μM, 15 min, ↑ (activation)) and 67.8 ↓ % in data set [4] (100 μM, 60 min, ↓ (inhibition)). Besides, the “effect on DNA and RNA synthesis” value in data set [4] (100 μM, 60 min incubation) is “inhibitory”; in data set [4] (setting [8]), “activate”. In addition, the inhibition at 30 µM in data set [4] (Homo sapiens, CCRF-CEM, 30 μM, 15 min, ↓ (inhibition), read-out: [3H] Leu → Protein (% Activation ↑ or Inhibition ↓)) came to 77.8%. In data set [4] (setting [7]), the inhibition at 100 µM is 67.8%.
